The subject of data set [1] is Anagnostidinema amphibium. Kind of data set: Antimicroalgal activity against Oscillatoria amphibia at 1.0 to 2.5 ppm. In kind it is functional, organism-based.
The test system of another data set is Staphylococcus aureus. Kind of data set: Antibacterial activity against Staphylococcus aureus. It is filed as functional, organism-based.
Another data set deals with Prorocentrum micans. Put plainly: Antimicroalgal activity against Prorocentrum micans at 1.0 to 2.5 ppm. It is filed as functional, organism-based.
Data set [2] deals with Ulva. Kind of data set: Toxicity against Ulva conglobata spores at 50 ppm. It is filed as organism-based. The settings on record: in vivo.
The next data set deals with Brachiomonas submarina. Kind of data set: Antimicroalgal activity against Brachiomonas submarina at 1.0 to 2.5 ppm. It is filed as functional, organism-based.
The next data set relates to Skeletonema costatum. Put plainly: Antimicroalgal activity against Skeletonema costatum at 1.0 to 2.5 ppm. In kind it is functional, organism-based.
Data set [3] concerns Ulva. Kind of data set: Antifouling activity against Ulva conglobata spores assessed as germination and attachment rate at 2.5 to 10.0 ppm. It is filed as functional, organism-based.
For the next data set, the system named is Bacillus subtilis. Put plainly: Antibacterial activity against Bacillus subtilis. It is filed as functional, organism-based.
The next data set has as its system Escherichia coli. Put plainly: Antibacterial activity against Escherichia coli. It is filed as functional, organism-based.
For another data set, the system named is Salinivibrio costicola. Put plainly: Antibacterial activity against sVibrio costicola. It is filed as functional, organism-based.

We go through 1 compound from ChEMBL document CHEMBL1146414, “New Agelasine Compound from the Marine Sponge Agelas mauritiana as an Antifouling Substance against Macroalgae” (J Nat Prod, 1997).

Active and inactive are the calls of the source. No cut-off for these calls is given here.

Consider `C/C(=C\C[n+]1cn(C)c2ncnc(N)c21)CC[C@@]1(C)C2=CCCC(C)(C)[C@@H]2CC[C@@H]1C.[Cl-]`, for which the result (in [1]; in the data set on Prorocentrum micans; in the data set on Brachiomonas submarina; with Skeletonema costatum; in the data set with Ulva [3]) was Active. Further, the result with Staphylococcus aureus, in the data set with Bacillus subtilis, in the data set with Escherichia coli and in the data set with Salinivibrio costicola was inactive. For the same compound, the Activity entry with Ulva [2] is “Toxic”.
